In the supplement of paper PMC10307832:

What was measured:
Assay in all cases: relative viability (nuclei count vs DMSO), 5 days (fraction); higher = more cells survive
[1] = compound: CC1=CC(=CC=C1)NC2=NC(=CS2)C3=CC=NC=C3 + Cc1nc(NC(=O)N2CCC[C@H]2C(N)=O)sc1-c1ccnc(C(C)(C)C(F)(F)F)c1 [Alpelisib] (partner 2 µM)
How it was run: (§1)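 Medians of duplicate plates are given as relative viability. That measure is the nuclei count in treated wells divided by the count in vehicle wells. Counts were taken on 4× images of lung cancer cell lines in 1536-well plates, 5 days after pin-tool dosing the day after seeding with one drug alone or a fixed anchor-drug dose plus five library-drug doses (not always all listed) in √10 steps.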

[2] = compound: CC1=CC(=CC=C1)NC2=NC(=CS2)C3=CC=NC=C3 + O=C(c1cc(Cc2n[nH]c(=O)c3ccccc23)ccc1F)N1CCN(C(=O)C2CC2)CC1 [Olaparib] (partner 8 µM)
How it was run: as §1

[3] = compound: Cc1ccc(NC(=O)c2ccc(CN3CCN(C)CC3)cc2)cc1Nc1nc(-c2cccnc2)cs1 [Masitinib] + CC(C)C[C@H](NC(=O)[C@H](Cc1ccccc1)NC(=O)c1cnccn1)B(O)O [Bortezomib] (partner 0.002 µM)
How it was run: as §1

[4] = compound: Cc1ccc(NC(=O)c2ccc(CN3CCN(C)CC3)cc2)cc1Nc1nc(-c2cccnc2)cs1 [Masitinib] + C[C@]1(O)C[C@@H](c2nc(-c3ccc4ccc(-c5ccccc5)nc4c3)c3c(N)nccn32)C1 [Linsitinib] (partner 1 µM)
How it was run: as §1

Cell Line | relative viability ([1]; first compound 0.08 µM) | relative viability ([1]; first compound 0.253 µM) | relative viability ([1]; first compound 0.8 µM) | relative viability ([1]; first compound 2.53 µM) | relative viability ([1]; first compound 8 µM) | relative viability ([2]; first compound 0.08 µM) | relative viability ([2]; first compound 0.253 µM) | relative viability ([2]; first compound 0.8 µM) | relative viability ([2]; first compound 2.53 µM) | relative viability ([2]; first compound 8 µM) | relative viability ([3]; first compound 0.01 µM) | relative viability ([3]; first compound 0.03162 µM) | relative viability ([3]; first compound 0.1 µM) | relative viability ([3]; first compound 0.3162 µM) | relative viability ([3]; first compound 1 µM) | relative viability ([4]; first compound 0.01 µM) | relative viability ([4]; first compound 0.03162 µM) | relative viability ([4]; first compound 0.1 µM) | relative viability ([4]; first compound 0.3162 µM) | relative viability ([4]; first compound 1 µM)
NCI-H1651 | 0.973 | 0.992 | 0.967 | 0.944 | 0.959 | 0.185 | 0.179 | 0.166 | 0.177 | 0.186 | 0.891 | 0.941 | 0.927 | 0.983 | 0.944 | 0.971 | 0.97 | 1.14 | 1 | 0.944
LU99A | – | 0.49 | 0.433 | 0.428 | 0.443 | 0.233 | 0.262 | 0.275 | 0.27 | 0.237 | 1.03 | 1.12 | 1.02 | 1.21 | 1.07 | 0.511 | 0.53 | 0.512 | 0.719 | 0.505
LXF-289 | 0.993 | 1.03 | 1.02 | 1.03 | 0.91 | 1.02 | 0.994 | 1.04 | 1.05 | 0.927 | 0.876 | 0.97 | 0.966 | 1.06 | 0.992 | 0.804 | 0.999 | 0.901 | 0.981 | 0.944
NCI-H1437 | 1.03 | 0.968 | 0.885 | 0.922 | 0.763 | 0.628 | 0.585 | 0.525 | 0.478 | 0.371 | 0.468 | 0.637 | 0.585 | 0.577 | 0.438 | 1.1 | 0.991 | 0.986 | 1.04 | 1.07
HCC-78 | 0.26 | 0.284 | 0.365 | 0.317 | 0.366 | 0.713 | 0.791 | 0.842 | 0.685 | 0.674 | 0.49 | 0.419 | 0.515 | 0.406 | 0.394 | 0.417 | 0.423 | 0.55 | 0.557 | 0.486
HCC-15 | 0.792 | 0.699 | 0.845 | 0.841 | 0.879 | 0.713 | 0.696 | 0.717 | 0.677 | 0.694 | 0.714 | 1.09 | 0.847 | 1.21 | 1.04 | 0.8 | 0.826 | 0.941 | 0.863 | 0.952
EKVX | 0.764 | 0.812 | 0.824 | 0.643 | 0.656 | 0.617 | 0.72 | – | 0.525 | 0.371 | – | 1.04 | 1.05 | 0.444 | 0.671 | – | 0.87 | 0.876 | 0.881 | 1.06
NCI-H2126 | 0.664 | 0.689 | 0.727 | 0.71 | 0.634 | 0.894 | 0.898 | 0.869 | 0.88 | 0.887 | 1.05 | 1.17 | 1.1 | 1.03 | 1.11 | 0.707 | 0.656 | 0.785 | 0.691 | 0.659
COR-L23 | 0.607 | 0.609 | 0.508 | 0.611 | 0.71 | 0.308 | 0.283 | 0.245 | 0.322 | 0.285 | 0.924 | 0.806 | 1.11 | 1.26 | 0.972 | 1.11 | 0.923 | 1 | 1.07 | 1.05
ABC-1 | 0.928 | 0.891 | 0.873 | 0.907 | 0.967 | 0.48 | – | 0.735 | 0.525 | 0.574 | 0.324 | 0.296 | 0.287 | 0.306 | 0.256 | 0.78 | 0.78 | 0.982 | 0.871 | 0.622
PC-14 | 0.942 | 0.988 | 0.851 | 0.989 | 0.94 | 0.298 | 0.289 | 0.289 | 0.238 | 0.162 | 0.786 | 0.878 | 0.857 | 0.84 | 0.846 | 0.918 | 0.904 | 1 | 0.976 | 0.999
A-427 | 1.03 | 1.06 | 1.1 | – | 0.844 | 0.456 | 0.576 | 0.565 | 0.683 | 0.615 | – | 0.977 | – | 0.99 | 1.06 | – | 1.06 | – | 1.18 | 1.07
NCI-H1915 | 1.03 | 0.996 | 1.07 | 1.07 | 0.938 | 0.271 | 0.263 | 0.25 | 0.243 | 0.23 | – | 0.894 | 0.805 | 1.04 | 0.926 | – | 1.15 | 1.09 | 0.974 | 1.03
LCLC-97TM1 | – | – | 0.298 | 0.258 | 0.238 | 0.419 | 0.304 | 0.343 | 0.411 | 0.379 | 0.61 | – | 0.749 | 0.741 | 0.83 | 0.157 | 0.151 | 0.197 | 0.144 | 0.181
NCI-H1734 | 0.615 | 0.683 | 0.672 | 0.757 | 0.687 | 0.552 | 0.584 | 0.57 | 0.63 | 0.539 | 0.899 | 0.772 | 1.01 | 0.949 | 0.853 | 0.857 | 0.854 | 0.943 | 0.747 | 0.855
LCLC-103H | 0.774 | 0.875 | 0.909 | 0.967 | 0.883 | 0.631 | 0.725 | 0.704 | 0.748 | 0.546 | 0.821 | 1.23 | 1.02 | 0.948 | 0.994 | 0.796 | 1.02 | 0.859 | 1.01 | 1.08
RERF-LC-KJ | 1.01 | 0.83 | 0.773 | 0.715 | 0.654 | 0.509 | 0.258 | 0.184 | 0.181 | 0.163 | 0.939 | 1 | 1.07 | 1.09 | 1 | 0.878 | 0.849 | 0.926 | 0.871 | 0.736
BEN | 1.11 | 0.973 | 1.07 | 0.856 | 0.91 | 0.928 | 1.15 | 1.1 | 0.975 | 1.09 | 1.15 | 0.662 | 0.874 | 0.666 | 0.831 | 1.04 | 0.858 | 1.19 | 1.23 | 0.939
NCI-H1703 | 0.391 | 0.294 | 0.408 | 0.354 | 0.323 | 0.313 | 0.33 | 0.359 | 0.585 | 0.447 | 0.29 | 0.246 | 0.229 | 0.269 | 0.174 | 0.667 | 1.02 | 0.479 | 0.23 | 0.187
LC-2-ad | 0.859 | 0.698 | 0.812 | 0.813 | 0.817 | 0.661 | 0.693 | 0.657 | 0.627 | 0.616 | 0.816 | 0.992 | 0.926 | 0.996 | 0.93 | 0.876 | 0.83 | 0.791 | 0.855 | 0.833
SW 1573 | 0.746 | 0.744 | 0.593 | 0.732 | 0.625 | 0.486 | 0.544 | 0.526 | 0.465 | 0.441 | 1.08 | 0.979 | 1.06 | 0.894 | 1 | 0.689 | 0.848 | 0.985 | 0.838 | 0.803
COR-L 105 | 0.956 | 0.794 | 0.869 | 0.773 | 0.715 | 0.575 | 0.499 | 0.477 | 0.541 | 0.457 | 0.695 | 0.699 | 0.823 | 0.823 | 0.725 | 0.993 | 0.973 | 0.921 | 0.753 | 0.881
NCI-H1993 | 0.683 | 0.683 | 0.719 | 0.644 | 0.619 | 0.945 | 1.01 | 0.923 | 1.11 | 0.898 | 1.01 | – | 1.21 | 1.03 | 1.03 | 0.732 | – | 0.733 | 0.659 | 0.665
Calu-6 | 0.886 | 0.744 | 0.906 | 0.957 | 0.919 | 0.422 | 0.471 | 0.43 | 0.479 | 0.407 | 0.903 | 1.04 | 1.07 | 0.774 | 0.876 | 0.815 | 0.916 | 1.06 | 0.997 | 0.902
NCI-H2009 | 1.08 | 1.16 | 1.11 | 1.24 | 1.21 | 0.629 | 0.644 | 0.717 | 0.677 | 0.63 | 0.666 | 1.1 | 0.887 | 0.894 | 0.939 | 1.2 | 1.22 | 1.24 | 1.23 | 1.17
SK-LU-1 | 0.955 | 0.934 | 0.617 | 0.992 | 0.852 | 0.49 | 0.435 | – | 0.459 | 0.433 | 1.2 | 1.13 | 1.28 | 1.24 | 0.899 | 1.06 | 1.22 | 1.26 | 1.43 | 1.25
NCI-H2347 | 0.821 | 1.11 | 0.614 | 1.07 | 0.993 | 0.47 | 0.536 | 0.538 | 0.568 | 0.48 | 0.829 | 1.02 | 0.938 | 0.899 | 0.903 | 0.758 | 0.911 | 0.867 | 0.948 | 1.09
